Data reported in patent US20050020544A1, “Bicyclic CB2 cannabinoid receptor ligands” (priority 2002, published 2005).
Where two headings read alike, the source gives them in different places.

Columns and labels:
Lewis rats = assay type: in vivo, rat; conditions: 30 mg/kg i.v., 5 times before the disease onset
Protocol: Various animal models of autoimmune encephalomyelitis are known in the art, depending on the method of induction, the strain of the animal and the antigen employed to induce the disease. The impact of bicyclic CB2 ligands was tested in EAE using Lewis rats in which the onset of disease is observed by the appearance of clinical symptoms about 10 days after induction. The disease progress and the clinical score increase and peak around day 15 and spontaneous recovery is observed around day 18 after induction of the disease. The animals (at least 9 per test group at initiation of study, except for the untreated control group that comprised only 5 rats) were maintained on a 12 hours light/12 hours dark regimen, at a constant temperature of 22° C., with food and water ad libitum. EAE was induced in these animals by immunization with s.c. injection to the hind paws of 25 μg of purified guinea pig myelin basic protein (MBP, Sigma) emulsified in 0.1 ml of Complete Freund's Adjuvant (Difco).
Methylprednisolone was used as positive control and it was administered daily for 5 consecutive days i.v. at 30 mg/kg starting from day of disease induction by MBP injection. The results are recorded as clinical score; score of 0 indicates a normal animal with no clinical signs, 0.5 indicates a loss of tonicity in the tail's distal part, 1 indicates whole tail paralysis, 2 indicates paraplegia, 3 indicates quadriplegia, 4 indicates complete body paralysis and moribund state and 5 indicates death. The clinical score of the animals is recorded for 11 days following onset of disease and the area under the curve (AUC) is calculated over this period of time.
Moreover, in a separate study animals were euthanized 15 days after induction of the disease by i.p. injection of 100 mg/kg pentobarbital. Brains and spinal cord were removed and were fixed by overnight incubation with 4% Paraformaldehyde. The cervical segment of the spinal cord was dehydrated using ethanol solutions of increasing concentration and then embedded in paraplast. The spinal cord was then sectioned (10 μm) and staining was performed using hematoxylin and eosin. The stained slides were examined under light microscopy for foci of infiltrating lymphocytes. Number of foci were counted and averaged in 6 sections for each animal. Three groups of at least 4 animals each were tested in this system: untreated, vehicle treated, and animals treated with 0.5 mg/kg of compound A. Results are expressed as average±SD of number of foci.

human CB1 receptor = target: T1, human CB1 receptor (Homo sapiens, UniProt P21554); assay: biochemical; assay type: binding; conditions: displacement of [3H]CP55940, hCB1 HEK-293 membranes; read-out: CB1 IC50
T1 construct: purchased Perkin Elmer/NEN; host or cells: HEK-293 cells, stably transfected (membranes)
T1 sequence (P21554 whole entry): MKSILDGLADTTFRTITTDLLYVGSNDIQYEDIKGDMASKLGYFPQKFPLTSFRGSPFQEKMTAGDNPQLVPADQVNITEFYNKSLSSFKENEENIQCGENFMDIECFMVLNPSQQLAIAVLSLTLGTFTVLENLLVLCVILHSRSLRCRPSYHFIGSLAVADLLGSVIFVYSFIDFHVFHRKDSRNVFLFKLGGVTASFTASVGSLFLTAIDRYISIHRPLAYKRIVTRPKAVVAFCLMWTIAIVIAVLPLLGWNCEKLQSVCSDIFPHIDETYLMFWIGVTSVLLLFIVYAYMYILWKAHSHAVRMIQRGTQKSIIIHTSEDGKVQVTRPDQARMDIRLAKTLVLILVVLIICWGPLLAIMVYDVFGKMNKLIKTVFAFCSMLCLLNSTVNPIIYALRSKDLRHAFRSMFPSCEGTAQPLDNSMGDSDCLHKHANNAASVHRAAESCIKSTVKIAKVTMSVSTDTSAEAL
Protocol: (§1) In the present invention, binding affinity is represented by the IC50 value, namely the concentration of a test compound that will displace 50% of a radiolabeled agonist from the CB receptors. […] Preferably these ratios will be obtained for human CB1 and CB2 receptors. The selectivity toward CB2, denoted CB2/CB1 affinity, is calculated as the IC50 value obtained by the test compound for the displacement of the CB1 specific radioligand divided by the IC50 value obtained for the displacement of the CB2 specific radioligand, i.e. the IC50 CB1/IC50 CB2.
The CB1 binding assays were performed by testing the ability of the new compounds to displace [^3H]CP55940 from the CB1 receptor on membranes derived from hCB1 stably transfected HEK-293 cells (Perkin Elmer/NEN). Membranes were diluted in the assay buffer (50 mM Tris-HCl, 2.5 mM EDTA, 5 mM MgCl2, 1 mg/ml BSA, pH=7.4) to 500 μg protein/ml. 50 μl of diluted membranes (25 μg) were incubated with [^3H]CP55940 in the presence or absence of the bicyclic test compounds in a total volume of 0.5 ml. Tested compounds were dissolved in DMSO and diluted in the assay buffer to a final concentration of 0.1% solvent. Control samples were added with identical amount of vehicle. Non-specific binding was measured by the addition of 10 μM of WIN 55212-2. Following 1.5 hours incubation at 30° C. reactions were filtered through Whatman 934A/H filters (presoaked with 0.1% Polyethylenimine (PEI)).
(§2) Binding to CB1 is measured by competitive inhibition of [^3H]CP55940 in HEK-293 cells stably transfected with the human CB1 receptor gene. Binding to CB2 is measured by competitive inhibition of [^3H]WIN55212-2 in CHO cells stably transfected with the human CB2 receptor gene.

human CB2 receptor = human CB2 receptor (Homo sapiens, UniProt P34972); assay: biochemical; assay type: binding; set-up: purchased Perkin Elmer/NEN; host or cells: CHO cells, stably transfected (membranes); conditions: for CB2/CB1 affinity ratio: IC50 CB1/IC50 CB2; for IC50: displacement of [3H]WIN 55212-2, hCB2 CHO membranes
Sequence of human CB2 receptor (P34972 whole entry): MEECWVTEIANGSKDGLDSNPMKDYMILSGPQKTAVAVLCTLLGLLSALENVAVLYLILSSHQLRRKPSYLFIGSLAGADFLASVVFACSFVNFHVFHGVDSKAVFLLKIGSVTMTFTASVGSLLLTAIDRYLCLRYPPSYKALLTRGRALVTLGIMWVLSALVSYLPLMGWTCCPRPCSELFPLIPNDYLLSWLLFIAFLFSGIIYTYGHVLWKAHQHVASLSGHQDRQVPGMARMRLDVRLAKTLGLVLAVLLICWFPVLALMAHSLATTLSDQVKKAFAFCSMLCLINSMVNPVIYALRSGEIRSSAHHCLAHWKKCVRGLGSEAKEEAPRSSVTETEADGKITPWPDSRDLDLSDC
Protocol: as §1
The affinities of the novel bicyclic analogs to the CB2 receptor were determined by their ability to displace [^3H]WIN 55212-2 from the receptor in membranes derived from hCB2 stably transfected CHO cells (Perkin Elmer/NEN). Membranes were diluted in assay buffer (10 mM HEPES, 1 mM MgCl2, 1 mM EDTA, 0.3 mg/ml BSA, pH=7.4) to 500 μg protein/ml. 50 μl of diluted membranes (25 μg) were incubated with 0.8 nM of [^3H]WIN 55212-2 in the presence or absence of several concentrations of the bicyclic test compounds in a total volume of 1 ml. Tested compounds were dissolved and diluted as previously described for the hCB1 assay. Non-specific binding was measured by the addition of 10 μM CP 55940. Following 40 minutes incubation at 30° C. reactions were filtered as previously described. Filters for all binding assays were counted in a β-counter and log of analog concentration versus % of binding was plotted. IC50 values were extrapolated from this plot.
as §2

[1] = test system: IL-1β secretion from activated RAW 264.7 macrophages; assay: Inhibition of IL-1β in LPS activated macrophages (ELISA); assay type: cell-based; conditions: Mus musculus; for inhibition at 10 µM: RAW264.7, 24 h, read-out: inhibition of IL-1β secretion
Protocol: The technique used to quantify the amount of a given protein in a liquid sample, either tissue culture supernatant or body fluid, is based on Enzyme Linked ImmunoSorbent Assay (ELISA) methodology. Either commercially available or established in house, the assay is based on the capture of the protein of interest by specific antibodies bound to the bottom of an ELISA plate well. […] Again the unbound material is washed away, the samples are then incubated with the appropriate substrate yielding a calorimetric reaction. The reaction is stopped and reading is performed in a spectrophotometer at the appropriate wavelength. Samples are tested at least in duplicate and the appropriate standard curve, consisting of serial dilutions of the recombinant target protein, is incorporated on each plate. Concentration of the protein in the sample is calculated from the standard curve.
RAW 264.7 macrophages, a mouse cell line (ATCC # TIB-71), were grown in Dulbecco's modified Eagle's medium (DMEM) with 4 mM L-glutamine adjusted to contain 1.5 g/L sodium bicarbonate, 4.5 g/L glucose, and 10% heat inactivated fetal bovine serum. Cells were grown in tissue culture flasks and seeded at appropriate density into 24 wells tissue culture plates. 0.5×10^6 Raw cells in one milliliter were stimulated with 2 μg/ml Lipopolysaccharide E. coli 055:B5 (DIFCO Laboratories). The mouse macrophages were pre-treated for one hour with controls or 10 μM of bicyclic CB2 ligands and later on activated with LPS. Dexamethasone was used as a positive control at 50 nM. Supernatant was collected 4 hours (for PGE2) and 24 hours (for IL-1β and TNF-α) after activation, and the levels of the inflammatory agent under study were determined by ELISA, as previously described. Inhibition was calculated versus vehicle treated cells.

Adult female BALB/c mice = assay type: in vivo, mouse; conditions: i.p. twice
Protocol: Adult female BALB/c mice (20 g average body weight, Harlan, Israel) were sensitized on day 0 and day 1 by application of 30 μl of 0.15% Dinitrofluorobenzene (DNFB) diluted in acetone on the shaved skin of the abdomen. On day 6 the animals were challenged by application of 10 μl of DNFB in acetone on one ear. The contralateral ear was not challenged but received the application of 10 μl acetone. Test compounds were administered at increasing doses from 0 to 15 mg/kg i.p. twice, the first injection was immediately after DNFB challenge (on day 6) and the second injection was 16 hours post challenge (on day 7). Each treatment group comprised at least 7 animals. Dexamethasone (DXM) was used as positive control. Ear thickness was determined (in 0.01 mm units) 24 hours after challenge (and 6 hours after second treatment on day 7) using a dial thickness gauge (Mitutoyo, Japan).
Results are analyzed as ear thickness of DNFB treated over DNFB untreated contralateral ear. The impact of the test compound was further assessed by comparing its mean impact on the animals of the treatment group to the response generated by the appropriate vehicle only.

Female Balb/c mice = test system: Female Balb/c mice
Protocol: The purpose of this study is to test in vivo the anti-inflammatory activity of the compounds in paw edema induced by injection of 1% carrageenan in the animal hind paw. Female Balb/c mice (20 g average body weight, Harlan, Israel) are anesthetized with a combination of xylazine and pentobarbitone diluted in sterile saline, 15 and 6 mg/kg i.p. respectively. Anesthetized mice are injected subcutaneously, in the subplantar region of one (right) paw with 0.05 ml of 1% w/v Carrageenan in sterile water. […] The test compounds, including known anti-inflammatory controls, are dissolved in CREMOPHOR EL®:ethanol and further diluted 1:20 or 1:50 in sterile saline prior to i.p. injection that takes place immediately before the carrageenan injection. Three hours after injection the animals are resedated following the previously described procedure. Paw thickness is measured using a dial thickness gauge (Spring-dial, constant low pressure gauge, Mitutoyo, TG/L-1, 0.01 mm) and paw volume is measured using a plethysmometer (model #7150, Ugo Basile, Italy). Paw Edema is expressed as the difference between the right treated and the left untreated paws of the same animal, either as Δ Paw Volume (ΔPV) in millimeters cube or as Δ Paw Thickness (ΔPT) in millimeters. Each group comprises at least 10 animals. […] At the end of the study, animals are euthanized with an i.p. injection of 100 mg/kg pentobarbitone.
The differences among various treatment groups are analyzed by analysis of variance (ANOVA) followed by post-hoc Fisher test. A value of p<0.05 is considered to be statistically significant.
For sake of comparison, known anti-inflammatory drugs such as Celecoxib and Dexamethasone yield respectively in the range of relevant doses 7% and 26% reduction in paw thickness at 0.1 mg/kg, 16% and 31% at 0.25 mg/kg and 24% and 33% at 0.5 mg/kg. […] It should be kept in mind that these commercially available drugs display serious side effects that prevent chronic uses without complementary protective medication.

SMILES	IC50 (human CB1 receptor) [µM]	CB2/CB1 affinity ratio (human CB2 receptor)	IC50 (human CB2 receptor) [µM]	inhibition at 10 µM [1] [%]	also measured
C[C@H]1C[C@@H]2[C@H]([C@@H](O)C[C@@]3(C)[C@H]2CC[C@]3(O)C(=O)CO)[C@@]2(C)C=CC(=O)C=C12 [Methylprednisolone, reference compound]					reduction in the AUC of the clinical score (Lewis rats): 34%
CCCCCCC(C)(C)c1cc(O)c([C@H]2C/C(=N/O)[C@H]3C[C@@H]2C3(C)C)c(O)c1 [Compound D]	0.093	27	0.0034	67	
CCCCCCC(C)(C)c1cc(O)c(C2CC(O)C3CC2C3(C)C)c(O)c1 (single isomer, unassigned; (-)) [Compound C, (−)-5-(1,1-Dimethyl-heptyl)-2-(4-hydroxy-6,6-dimethylbicyclo[3.1.1]hept-2-yl)-benzene-1,3-diol]	0.031	9	0.0035	26	
CCCCCCC(C)(C)c1cc(OC)c(C2CC(=O)C3CC2C3(C)C)c(OC)c1 (single isomer, unassigned; (-)) [Compound B, (−)-4-[4-(1,1-Dimethyl-heptyl)-2,6-dimethoxy-phenyl]-6,6-dimethyl-bicyclo[3.1.1]heptan-2-one]	2.8	62	0.045	34	
C[C@@H]1C[C@H]2[C@@H]3CCC4=CC(=O)C=C[C@]4(C)[C@@]3(F)[C@@H](O)C[C@]2(C)[C@@]1(O)C(=O)CO [Dexamethasone, reference compound]					calculated IC50 reduction in ear thickness (Adult female BALB/c mice): 3.2 mg/kg; maximal inhibition (reduction in ear thickness) (Adult female BALB/c mice; doses 0 to 15 mg/kg, 24 hours after challenge): around 80%; inhibition at 0.05 µM ([1]; RAW264.7, positive control at 50 nM, 24 hours after LPS activation): 97%; reduction in paw thickness (Female Balb/c mice; 0.1 mg/kg): 26%; reduction in paw thickness (Female Balb/c mice; 0.25 mg/kg): 31%; reduction in paw thickness (Female Balb/c mice; 0.5 mg/kg): 33%
